Patent US20260248780A1, “PHARMACEUTICAL COMPOSITIONS” (Birdie Biopharmaceuticals, Inc., priority 2017, published 2026)

Columns and labels:
Format in all cases: physicochemical
[1] = Physical and chemical (solid-state) stability under 25° C./60% RH and 40° C./75% RH for one week; conditions: for Form change: XRPD
Description: Physicochemical stability of Type A (807919-05-A) was evaluated under 25° C./60% RH and 40° C./75% RH for one week, and 80° C. (closed) for 24 hours.

[2] = HPLC purity of clear samples after kinetic solubility test; conditions: clear sample after kinetic solubility test, FeSSIF
Description: After being centrifuged and separated using 0.45 μm Nylon filter, filtrates were collected for HPLC and pH test, and wet cakes for XRPD characterization. If clear solutions were obtained after 24 hours, accurate concentration and purity were measured for the solutions.

[3] = Polymorph screening of freebase Type A (solid form by XRPD)

CCOCc1nc2c(N)nc3ccccc3c2n1CC(C)(C)O [Freebase Type A, 1-[4-amino-2-(ethoxymethyl)imidazo-[4,5-c]-quinolin-1-yl]-2-methylpropan-2-ol]
HPLC Purity % of Initial ([1]; 25° C./60% RH): 99.8% | HPLC Purity Area % ([1]; 25° C./60% RH): 99.15 Area % | Form change ([1]; 25° C./60% RH): No | HPLC Purity % of Initial ([1]; 40° C./75% RH): 100.0% | HPLC Purity Area % ([1]; 40° C./75% RH): 99.28 Area % | Form change ([1]; 40° C./75% RH): No | HPLC Purity % of Initial [2]: 99.9% | HPLC Purity Area % [2]: 99.25 Area % | Solid Form ([3]; anti-solvent addition: solvent 1,4-dioxane, anti-solvent Toluene, solids after stirring at 5° C. for 2 days): Type A | Solid Form ([3]; anti-solvent addition: solvent 2-MeTHF, anti-solvent n-heptane): Type A + B | Solid Form ([3]; anti-solvent addition: solvent Acetone, anti-solvent H2O, no solid at 5° C., then evaporation): Type A | Solid Form ([3]; anti-solvent addition: solvent Acetone, anti-solvent MTBE, no solid at 5° C., then evaporation): Type B | Solid Form ([3]; anti-solvent addition: solvent CHCl3, anti-solvent MTBE): Type A | Solid Form ([3]; anti-solvent addition: solvent CHCl3, anti-solvent n-heptane): Type A + B | Solid Form ([3]; anti-solvent addition: solvent DCM, anti-solvent Anisole): Clear | Solid Form ([3]; anti-solvent addition: solvent DCM, anti-solvent Toluene): Type A | Solid Form ([3]; anti-solvent addition: solvent DMAc, anti-solvent H2O): Type A | Solid Form ([3]; anti-solvent addition: solvent DMSO, anti-solvent H2O): Type A | Solid Form ([3]; anti-solvent addition: solvent EtOH, anti-solvent Anisole, no solid at 5° C., then evaporation): Type G | Solid Form ([3]; anti-solvent addition: solvent EtOH, anti-solvent n-heptane): Type A | Solid Form ([3]; anti-solvent addition: solvent Ethyl lactate, anti-solvent n-heptane): Type A + Sample H | Solid Form ([3]; anti-solvent addition: solvent IBA, anti-solvent Toluene, no solid at 5° C., then evaporation): Type B | Solid Form ([3]; anti-solvent addition: solvent IPA, anti-solvent H2O, no solid at 5° C., then evaporation): Clear | Solid Form ([3]; anti-solvent addition: solvent MeOH, anti-solvent H2O): Type A | Solid Form ([3]; anti-solvent addition: solvent MeOH, anti-solvent MTBE, solids after stirring at 5° C. for 2 days): Type A | Solid Form ([3]; anti-solvent addition: solvent NMP, anti-solvent H2O): Type A | Solid Form ([3]; anti-solvent addition: solvent THF, anti-solvent H2O, no solid at 5° C., then evaporation): Type A | Solid Form ([3]; anti-solvent addition: solvent THF, anti-solvent n-heptane): Type A + B | Solid Form ([3]; liquid vapor diffusion, RT 6 days: solvent 2-MeTHF, anti-solvent Toluene): Type A | Solid Form ([3]; liquid vapor diffusion, RT 6 days: solvent Acetone, anti-solvent n-heptane): Type A | Solid Form ([3]; liquid vapor diffusion, RT 6 days: solvent CHCl3, anti-solvent Toluene): Type A + B | Solid Form ([3]; liquid vapor diffusion, RT 6 days: solvent DCM, anti-solvent n-heptane): Type A | Solid Form ([3]; liquid vapor diffusion, RT 6 days: solvent DMAc, anti-solvent MTBE): Type D | Solid Form ([3]; liquid vapor diffusion, RT 6 days: solvent EtOH, anti-solvent H2O): Type A | Solid Form ([3]; liquid vapor diffusion, RT 6 days: solvent Ethyl lactate, anti-solvent MTBE): Clear | Solid Form ([3]; liquid vapor diffusion, RT 6 days: solvent IBA, anti-solvent n-heptane): Clear | Solid Form ([3]; liquid vapor diffusion, RT 6 days: solvent NMP, anti-solvent MTBE): Type E | Solid Form ([3]; liquid vapor diffusion, RT 6 days: solvent THF, anti-solvent H2O): Type B | Solid Form ([3]; polymer induced crystallization: Acetone, Polymer mixture A): Type A | Solid Form ([3]; polymer induced crystallization: Acetone, Polymer mixture B): Type A | Solid Form ([3]; polymer induced crystallization: MeOH, Polymer mixture A): Type A | Solid Form ([3]; polymer induced crystallization: MeOH, Polymer mixture B): Type B | Solid Form ([3]; polymer induced crystallization: THF, Polymer mixture A): Type A | Solid Form ([3]; polymer induced crystallization: THF, Polymer mixture B): Type A | Crystal Form ([3]; screening summary: Anti-solvent Addition, 20 experiments): Type A, B, G, sample H | Crystal Form ([3]; screening summary: Polymer-induced Crystallization, 6 experiments): Type A, B | Crystal Form ([3]; screening summary: Slow Cooling, 10 experiments): Type A, B, F, G | Crystal Form ([3]; screening summary: Slow Evaporation, 10 experiments): Type A, B | Crystal Form ([3]; screening summary: Slurry at RT/50° C., 31 experiments): Type A, C | Crystal Form ([3]; screening summary: Solid Vapor Diffusion, 13 experiments): Type A, C | Crystal Form ([3]; screening summary: Solution Vapor Diffusion, 10 experiments): Type A, B, D, E | Crystal Form ([3]; screening summary: Total, 100 experiments): Type A~G, sample H | Solid Form ([3]; slow cooling, then −20° C.: ACN): Type A | Solid Form ([3]; slow cooling, then −20° C.: Acetone/H2O (1:3)): Type A | Solid Form ([3]; slow cooling, then −20° C.: Anisole, limited solid, then evaporation at RT): Type G | Solid Form ([3]; slow cooling, then −20° C.: CHCl3/MTBE (1:3)): Type B | Solid Form ([3]; slow cooling, then −20° C.: EtOAc): Type A | Solid Form ([3]; slow cooling, then −20° C.: EtOH/n-heptane (1:3)): Type A | Solid Form ([3]; slow cooling, then −20° C.: IPAc): Type A | Solid Form ([3]; slow cooling, then −20° C.: MEK): Type F | Solid Form ([3]; slow cooling, then −20° C.: MIBK): Type A + B | Solid Form ([3]; slow cooling, then −20° C.: THF/toluene (1:3)): Type A + B | Solid Form ([3]; slow evaporation at RT: 2-MeTHF/n-heptane (1:1)): Type B | Solid Form ([3]; slow evaporation at RT: ACN): Type A + B | Solid Form ([3]; slow evaporation at RT: Acetone): Type A | Solid Form ([3]; slow evaporation at RT: CHCl3/n-heptane (1:1)): Type A + B | Solid Form ([3]; slow evaporation at RT: DCM): Type A | Solid Form ([3]; slow evaporation at RT: EtOAc): Type B | Solid Form ([3]; slow evaporation at RT: EtOH/H2O (1:1)): Type A | Solid Form ([3]; slow evaporation at RT: IPA): Type A | Solid Form ([3]; slow evaporation at RT: MeOH): Type A | Solid Form ([3]; slow evaporation at RT: THF): Type A | Solid Form ([3]; slurry at 50° C., about 3 days: 1,4-dioxane): Type C | Solid Form ([3]; slurry at 50° C., about 3 days: 2-MeTHF): Type A | Solid Form ([3]; slurry at 50° C., about 3 days: ACN): Type A | Solid Form ([3]; slurry at 50° C., about 3 days: Anisole): Type A | Solid Form ([3]; slurry at 50° C., about 3 days: CHCl3/toluene (1:5)): Type A | Solid Form ([3]; slurry at 50° C., about 3 days: EtOAc): Type A | Solid Form ([3]; slurry at 50° C., about 3 days: H2O): Type A | Solid Form ([3]; slurry at 50° C., about 3 days: IBA): Type A | Solid Form ([3]; slurry at 50° C., about 3 days: IPA): Type A | Solid Form ([3]; slurry at 50° C., about 3 days: IPAc): Type A | Solid Form ([3]; slurry at 50° C., about 3 days: MEK): Type A | Solid Form ([3]; slurry at 50° C., about 3 days: MIBK): Type A | Solid Form ([3]; slurry at 50° C., about 3 days: MeOH/H2O (1:5)): Type A | Solid Form ([3]; slurry at 50° C., about 3 days: THF/n-heptane (1:5)): Type A | Solid Form ([3]; slurry at RT, 3 days: 1,4-dioxane): Type A | Solid Form ([3]; slurry at RT, 3 days: 2-MeTHF): Type A | Solid Form ([3]; slurry at RT, 3 days: ACN): Type A | Solid Form ([3]; slurry at RT, 3 days: Anisole): Type A | Solid Form ([3]; slurry at RT, 3 days: DCM/toluene (1:3)): Type A | Solid Form ([3]; slurry at RT, 3 days: EtOAc): Type A | Solid Form ([3]; slurry at RT, 3 days: IBA): Type A | Solid Form ([3]; slurry at RT, 3 days: IPA): Type A | Solid Form ([3]; slurry at RT, 3 days: IPAc): Type A | Solid Form ([3]; slurry at RT, 3 days: MEK): Type A | Solid Form ([3]; slurry at RT, 3 days: MIBK): Type A | Solid Form ([3]; slurry at RT, 3 days: MeOH/H2O (1:3)): Type A | Solid Form ([3]; slurry at RT, 3 days: THF/n-heptane (1:3)): Type A | Solid Form ([3]; slurry at RT, 3 days: acetone/H2O (aw = 0.2)): Type A | Solid Form ([3]; slurry at RT, 3 days: acetone/H2O (aw = 0.4)): Type A | Solid Form ([3]; slurry at RT, 3 days: acetone/H2O (aw = 0.6)): Type A | Solid Form ([3]; slurry at RT, 3 days: acetone/H2O (aw = 0.8)): Type A | Solid Form ([3]; solid vapor diffusion, RT 7 days: 1,4-dioxane): Type C | Solid Form ([3]; solid vapor diffusion, RT 7 days: ACN): Type A | Solid Form ([3]; solid vapor diffusion, RT 7 days: Acetone): Type A | Solid Form ([3]; solid vapor diffusion, RT 7 days: CHCl3): Type A | Solid Form ([3]; solid vapor diffusion, RT 7 days: DCM): Type A | Solid Form ([3]; solid vapor diffusion, RT 7 days: DMF): Type A | Solid Form ([3]; solid vapor diffusion, RT 7 days: DMSO): Type A | Solid Form ([3]; solid vapor diffusion, RT 7 days: EtOAc): Type A | Solid Form ([3]; solid vapor diffusion, RT 7 days: EtOH): Type A | Solid Form ([3]; solid vapor diffusion, RT 7 days: H2O): Type A | Solid Form ([3]; solid vapor diffusion, RT 7 days: IPA): Type A | Solid Form ([3]; solid vapor diffusion, RT 7 days: MeOH): Type A | Solid Form ([3]; solid vapor diffusion, RT 7 days: THF): Type A
